The values that follow come from ChEMBL document CHEMBL5357034, “Antimicrobial and Anti-inflammatory Cyclic Tetrapeptides from the Co-cultures of Two Marine-Derived Fungi” (2024).

Square brackets hold non-standard residues; d marks the D form. Peptide text beside a SMILES is read from it. NMeA = CN[C@@H](C)C(=O)O Some results are limits rather than exact numbers.

Format in all cases: functional
For one assay, the system named is Candida albicans. The experiment in a line: Antimicrobial activity against Candida albicans ATCC 10213 assessed as inhibition of microbial growth incubated for 24 hrs by broth microdilution method. (In broth dilution the organism is exposed to a series of concentrations in liquid medium.)
The test system of assay [1] is Staphylococcus aureus. The experiment in a line: Antimicrobial activity against methicillin-resistant Staphylococcus aureus ATCC R6101 assessed as inhibition of microbial growth incubated for 24 hrs by broth microdilution method.
In another assay the test system is Escherichia coli. The experiment in a line: Antimicrobial activity against Escherichia coli ATCC 25922 assessed as inhibition of microbial growth incubated for 24 hrs by broth microdilution method.
Assay [2] deals with Staphylococcus aureus. Put plainly: Antimicrobial activity against methicillin-resistant Staphylococcus aureus ATCC 33591 assessed as inhibition of microbial growth incubated for 24 hrs by broth microdilution method.
A further assay deals with Edwardsiella ictaluri. The experiment in a line: Antimicrobial activity against Edwardsiella ictaluri ATCC33202 assessed as inhibition of microbial growth incubated for 24 hrs by broth microdilution method.
Assay [3] relates to Edwardsiella tarda. Put plainly: Antimicrobial activity against Edwardsiella tarda QDIO-2 assessed as inhibition of microbial growth incubated for 24 hrs by broth microdilution method.
In the next assay the test system is Bacillus subtilis. The experiment in a line: Antimicrobial activity against Bacillus subtilis ATCC 6633 assessed as inhibition of microbial growth incubated for 24 hrs by broth microdilution method.
The subject of assay [4] is Staphylococcus aureus. Put plainly: Antimicrobial activity against Staphylococcus aureus ATCC 29213 assessed as inhibition of microbial growth incubated for 24 hrs by broth microdilution method.
The subject of another assay is Acinetobacter baumannii. The experiment in a line: Antimicrobial activity against Acinetobacter baumannii 2799 assessed as inhibition of microbial growth incubated for 24 hrs by broth microdilution method.
Assay [5] deals with Edwardsiella tarda. The experiment in a line: Antimicrobial activity against Edwardsiella tarda ATCC15947 assessed as inhibition of microbial growth incubated for 24 hrs by broth microdilution method.
Another assay concerns Pseudomonas aeruginosa. Put plainly: Antimicrobial activity against Pseudomonas aeruginosa ATCC 27853 assessed as inhibition of microbial growth incubated for 24 hrs by broth microdilution method.
Assay [6] has as its system RAW264.7. Put plainly: Anti-inflammatory activity in LPS-induced mouse RAW264.7 cells assessed as inhibition of TNF-alpha production at 10 uM preincubated with compound for 24 hrs followed by compound replacement with DMEM media and measured 6 hrs after LPS stimulation by qRT-PCR analysis relative to control. (Real-time PCR tracks product formation cycle by cycle.)
In assay [7] the test system is RAW264.7. The experiment in a line: Anti-inflammatory activity in LPS-induced mouse RAW264.7 cells assessed as inhibition of IL-6 production at 10 uM preincubated with compound for 24 hrs followed by compound replacement with DMEM media and measured 6 hrs after LPS stimulation by qRT-PCR analysis relative to control.
The test system of assay [8] is RAW264.7. Put plainly: Anti-inflammatory activity in LPS-induced mouse RAW264.7 cells assessed as inhibition of MCP-1 production at 10 uM preincubated with compound for 24 hrs followed by compound replacement with DMEM media and measured 6 hrs after LPS stimulation by qRT-PCR analysis relative to control.

`CC(C)Cc1cnc(CC(C)C)c(=O)[nH]1`: the minimum inhibitory concentration (MIC) was more than 128 µg/mL in the assay with Candida albicans; more than 128 µg/mL with Staphylococcus aureus [1]; more than 128 µg/mL in the assay on Escherichia coli; more than 128 µg/mL with Staphylococcus aureus [2]; 64 µg/mL with Edwardsiella ictaluri; 128 µg/mL with Edwardsiella tarda [3]. Besides, the minimal inhibitory concentration (MIC) in the assay on Bacillus subtilis is more than 128 µg/mL; in the assay on Staphylococcus aureus [4], more than 128 µg/mL; with Acinetobacter baumannii, more than 128 µg/mL; in the assay with Edwardsiella tarda [5], 128 µg/mL; in the assay with Pseudomonas aeruginosa, more than 128 µg/mL.

On to `CC(C)Cc1ncc([C@@H](O)C(C)C)n(O)c1=O`, for which the MIC in the assay on Candida albicans is 32 µg/mL; with Staphylococcus aureus [1] it was more than 128 µg/mL; with Escherichia coli it was more than 128 µg/mL; in the assay on Staphylococcus aureus [2], 16 µg/mL; in the assay on Edwardsiella ictaluri it was 64 µg/mL; in the assay with Edwardsiella tarda [3] it was 128 µg/mL. Moreover, the minimum inhibitory concentration (MIC) with Bacillus subtilis is 128 µg/mL; with Staphylococcus aureus [4], 32 µg/mL; with Acinetobacter baumannii, 128 µg/mL; in the assay with Edwardsiella tarda [5], 128 µg/mL; with Pseudomonas aeruginosa it was more than 128 µg/mL.

As for `CC[C@H](C)[C@@H]1NC(=O)[C@H](C)NC(=O)[C@H](Cc2ccc(OC)cc2)NC(=O)[C@H](C)N(C)C1=O` (cyclo(AI[NMeA]Y(Me))), the inhibition at 10 µM with RAW264.7 [6] amounted to 6.6%; in the assay on RAW264.7 [7] it was 67%; in the assay with RAW264.7 [8], 12%.

`CC[C@H](C)[C@@H]1NC(=O)[C@H]([C@@H](C)O)NC(=O)[C@H](Cc2ccccc2)NC(=O)[C@H](C)N(C)C1=O` (cyclo(FTI[NMeA])): the MIC is more than 128 µg/mL in the assay on Candida albicans; more than 128 µg/mL with Staphylococcus aureus [1]; more than 128 µg/mL with Escherichia coli; more than 128 µg/mL in the assay with Staphylococcus aureus [2]; 128 µg/mL in the assay on Edwardsiella ictaluri; 128 µg/mL with Edwardsiella tarda [3]. Moreover, the MIC in the assay with Bacillus subtilis, with Staphylococcus aureus [4], in the assay with Acinetobacter baumannii, in the assay with Edwardsiella tarda [5] and in the assay on Pseudomonas aeruginosa was more than 128 µg/mL throughout. Besides, the inhibition at 10 µM in the assay on RAW264.7 [6] amounted to 13%; with RAW264.7 [7] it was 61%; in the assay on RAW264.7 [8] it was 56%.

In the case of `CC[C@H](C)[C@@H]1NC(=O)[C@H]([C@@H](C)O)NC(=O)[C@H](Cc2ccc(OC)cc2)NC(=O)[C@@H]2CCCN2C1=O` (cyclo(IPY(Me)T)), the MIC with Candida albicans, in the assay on Staphylococcus aureus [1], in the assay on Escherichia coli, in the assay with Staphylococcus aureus [2], in the assay on Edwardsiella ictaluri and in the assay with Edwardsiella tarda [3] was more than 128 µg/mL in each case. Besides, the MIC in the assay on Bacillus subtilis, in the assay on Staphylococcus aureus [4], in the assay with Acinetobacter baumannii, in the assay with Edwardsiella tarda [5] and with Pseudomonas aeruginosa was more than 128 µg/mL each time. For the same molecule, the results for the inhibition at 10 µM with RAW264.7 [6], with RAW264.7 [7] and in the assay with RAW264.7 [8] were 16%, 63% and 42%, respectively.

Turning to `CC[C@H](C)[C@@H]1NC(=O)[C@H]([C@@H](C)O)NC(=O)[C@H](Cc2ccc(OC)cc2)NC(=O)[C@H](C)N(C)C1=O` (cyclo(I[NMeA]Y(Me)T)), the MIC is more than 128 µg/mL with Candida albicans; more than 128 µg/mL with Staphylococcus aureus [1]; more than 128 µg/mL with Escherichia coli; more than 128 µg/mL in the assay on Staphylococcus aureus [2]; 64 µg/mL with Edwardsiella ictaluri; more than 128 µg/mL with Edwardsiella tarda [3]. Besides, the MIC is more than 128 µg/mL in the assay on Bacillus subtilis; more than 128 µg/mL in the assay with Staphylococcus aureus [4]; more than 128 µg/mL in the assay on Acinetobacter baumannii; 128 µg/mL with Edwardsiella tarda [5]; more than 128 µg/mL in the assay with Pseudomonas aeruginosa. For the same molecule, the inhibition at 10 µM was 24% with RAW264.7 [6], 55% in the assay with RAW264.7 [7] and 44% in the assay with RAW264.7 [8].

For `COc1ccc(C[C@@H]2NC(=O)[C@H](C)N(C)C(=O)[C@H](CC(C)C)NC(=O)[C@H]([C@@H](C)O)NC2=O)cc1` (cyclo(L[NMeA]Y(Me)T)), the MIC with Candida albicans, in the assay with Staphylococcus aureus [1], in the assay with Escherichia coli, in the assay on Staphylococcus aureus [2], in the assay on Edwardsiella ictaluri and with Edwardsiella tarda [3] was more than 128 µg/mL each time. The minimum inhibitory concentration (MIC) with Bacillus subtilis was more than 128 µg/mL; in the assay with Staphylococcus aureus [4] it was more than 128 µg/mL; in the assay on Acinetobacter baumannii, more than 128 µg/mL; in the assay with Edwardsiella tarda [5], 128 µg/mL; in the assay with Pseudomonas aeruginosa, more than 128 µg/mL. Further, the inhibition at 10 µM is 15% in the assay with RAW264.7 [6], 55% in the assay with RAW264.7 [7] and 41% with RAW264.7 [8].

Take `CO[C@H]1/C=C/O[C@@]2(C)Oc3c(C)c(O)c4c(O)c(c(/C=N/N5CCN(C)CC5)c(O)c4c3C2=O)NC(=O)/C(C)=C\C=C\[C@H](C)[C@H](O)[C@@H](C)[C@@H](O)[C@@H](C)[C@H](OC(C)=O)[C@@H]1C` [RIFAMPIN]: the minimum inhibitory concentration (MIC) in the assay on Candida albicans is less than 0.25 µg/mL; with Staphylococcus aureus [1] it was 8 µg/mL; in the assay on Escherichia coli, 4 µg/mL; with Staphylococcus aureus [2] it was less than 0.25 µg/mL; in the assay with Edwardsiella ictaluri, 8 µg/mL; in the assay on Edwardsiella tarda [3] it was 4 µg/mL. For the same molecule, the MIC was less than 0.25 µg/mL with Bacillus subtilis; less than 0.25 µg/mL in the assay on Staphylococcus aureus [4]; 1 µg/mL in the assay on Acinetobacter baumannii; 2 µg/mL in the assay on Edwardsiella tarda [5]; 8 µg/mL in the assay with Pseudomonas aeruginosa.

In the case of `CN[C@H](CC(C)C)C(=O)N[C@H]1C(=O)N[C@@H](CC(N)=O)C(=O)N[C@H]2C(=O)N[C@H]3C(=O)N[C@H](C(=O)N[C@H](C(=O)O)c4cc(O)cc(O)c4-c4cc3ccc4O)[C@H](O)c3ccc(c(Cl)c3)Oc3cc2cc(c3O[C@@H]2O[C@H](CO)[C@@H](O)[C@H](O)[C@H]2O[C@H]2C[C@](C)(N)[C@H](O)[C@H](C)O2)Oc2ccc(cc2Cl)[C@H]1O` [VANCOMYCIN], the minimal inhibitory concentration (MIC) was less than 0.25 µg/mL in the assay on Candida albicans; more than 128 µg/mL in the assay with Staphylococcus aureus [1]; 128 µg/mL in the assay with Escherichia coli; more than 128 µg/mL in the assay on Edwardsiella ictaluri; more than 128 µg/mL in the assay on Edwardsiella tarda [3]; less than 0.25 µg/mL in the assay with Bacillus subtilis. In addition, the minimal inhibitory concentration (MIC) is 64 µg/mL in the assay with Acinetobacter baumannii, more than 128 µg/mL in the assay with Edwardsiella tarda [5] and more than 128 µg/mL with Pseudomonas aeruginosa.

The MIC is the smallest concentration in the dilution series that meets the test's criterion for growth inhibition. The inhibition is the relative decrease from the control value, in per cent.
